Positions count from the first letter of the chain named. Read-outs that look alike come from different tables or passages of the source.
Experiments:
[1] = test system: LNCaP and VCaP cell lines; test: General toxicity screen in LNCaP and VCaP cell lines; type: cell-based, human; conditions: at concentrations as high as 25 μM
[2] = test system: VCaP cells; test: VCaP cell proliferation; type: cell-based
[3] = molecular target: T1, T877A (LNCaP) AR (Homo sapiens, UniProt P10275, T878A); test: MMTV-luciferase transcription assay in CV-1 cells, T877A AR; type: cell-based
T1 construct: expressed in transfected cells; host or cells: CV-1
T1 sequence (P10275 1-920 T878A): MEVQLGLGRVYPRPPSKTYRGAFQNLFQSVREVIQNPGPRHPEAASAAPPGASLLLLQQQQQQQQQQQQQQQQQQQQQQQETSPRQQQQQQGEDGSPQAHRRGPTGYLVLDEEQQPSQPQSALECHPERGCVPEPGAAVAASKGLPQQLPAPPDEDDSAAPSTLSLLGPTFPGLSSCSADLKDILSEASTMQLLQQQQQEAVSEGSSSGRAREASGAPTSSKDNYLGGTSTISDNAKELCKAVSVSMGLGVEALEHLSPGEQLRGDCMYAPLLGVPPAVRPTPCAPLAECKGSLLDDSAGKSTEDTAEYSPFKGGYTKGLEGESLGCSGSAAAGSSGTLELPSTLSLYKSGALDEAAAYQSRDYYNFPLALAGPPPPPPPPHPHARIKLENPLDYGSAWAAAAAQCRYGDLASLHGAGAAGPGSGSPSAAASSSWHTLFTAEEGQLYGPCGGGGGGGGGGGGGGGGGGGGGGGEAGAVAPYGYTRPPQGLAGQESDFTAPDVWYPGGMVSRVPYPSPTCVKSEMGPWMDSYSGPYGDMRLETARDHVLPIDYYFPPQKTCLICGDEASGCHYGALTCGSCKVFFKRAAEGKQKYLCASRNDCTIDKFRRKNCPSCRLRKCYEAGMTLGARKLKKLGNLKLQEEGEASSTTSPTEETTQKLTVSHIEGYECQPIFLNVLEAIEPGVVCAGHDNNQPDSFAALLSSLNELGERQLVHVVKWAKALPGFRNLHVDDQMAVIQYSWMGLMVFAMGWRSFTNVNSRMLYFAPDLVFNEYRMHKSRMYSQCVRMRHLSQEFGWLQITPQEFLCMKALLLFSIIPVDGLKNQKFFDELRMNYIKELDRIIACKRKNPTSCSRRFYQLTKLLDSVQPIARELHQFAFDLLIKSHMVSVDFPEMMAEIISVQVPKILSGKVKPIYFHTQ
Excerpt: (§1) These compounds were screened using an AR-responsive MMTV transcription assay in CV-1 cells, utilizing both wild type and T877A (LNCaP) AR. […]

[4] = molecular target: T2, wild type AR (Homo sapiens, UniProt P10275); test: MMTV-luciferase transcription assay in CV-1 cells, wild type AR; type: cell-based; conditions: wild type AR; values given in μM; read-out: MMTV transcription assay in CV-1 cells WT (IC50)
T2 construct: expressed in transfected cells; host or cells: CV-1
T2 sequence (P10275 1-920): T1 sequence (P10275 1-920 T878A) with A878T
Excerpt: as §1

[5] = test system: wild type androgen receptor; test: FKBP51 endogenous gene expression in LNCaP-AR cells (wild type AR overexpressed); type: cell-based, human; conditions: at 20 M (so in the source)
Excerpt: (§2) FIG. 44 depicts data for dose-dependent inhibition of androgen receptor-dependent endogenous gene expression of FKBP51 by Compound 1 of Example IV in LNCaP cells producing exclusively T877A mutant androgen receptor (LNCaP-XIP) and LNCaP cells transfected with wild type androgen receptor (LNCaP-androgen receptor, ratio of wild type to T877A receptor is ca. 3:1).
(§3) To more fully characterize the selectivity of compound 1 for the mutant receptor, we measured its inhibitory potential against the WT and T877A mutant receptor in an AR-dependent luciferase transcription assay in CV-1 cells (FIGS. 43A and B).

[6] = molecular target: T3, T877A mutant androgen receptor (Homo sapiens, UniProt P10275, T878A); test: FKBP51 endogenous gene expression in LNCaP-XIP cells; type: cell-based
T3 construct: endogenous in cells; host or cells: LNCaP-XIP
T3 sequence (P10275 1-920 T878A): T1 sequence (P10275 1-920 T878A)
Excerpt: as §2, §3

[7] = test system: AR-VP16 construct; test: MMTV-luciferase reporter gene assay with AR-VP16 construct (AR/DNA binding); type: cell-based
Excerpt: (§4) Accordingly, we analyzed the disruption of AR/DNA binding using a luciferase reporter gene assay transfected with an AR-VP16 construct that is constitutively active upon DNA binding, regardless of the ability of AR to recruit transcriptional machinery (FIG. 40A). Simultaneously, we examined CV-1 cells transfected with an AR construct that is only transcriptionally active when there is a positive interaction between the NTD and C-terminal LBD ([…]) (FIG. 40B).

[8] = molecular target: T4, AR (Homo sapiens, UniProt P10275); test: Western blot analysis of AR degradation; type: cell-based
T4 sequence (P10275 1-920): T1 sequence (P10275 1-920 T878A) with A878T

[9] = molecular target: T4, AR; test: AR relative binding affinity (RBA)
[10] = molecular target: T5, AR NTD/LBD interaction (Homo sapiens, UniProt P10275); test: AR NTD/LBD interaction reporter assay in CV-1 cells; type: cell-based
T5 construct: expressed in transfected cells; host or cells: CV-1
T5 sequence (P10275 1-920): T1 sequence (P10275 1-920 T878A) with A878T
Excerpt: as §4

## COc1cc([C@H]2[C@H](c3ccccc3)[C@H](c3cc(OC)nc(OC)n3)[C@H]2c2ccccc2)nc(OC)n1 [CB-22]
[1]
  toxicity: complete lack of toxicity
[2]
  inhibition of VCaP cell proliferation: slow cell-growth in a dose-dependent manner
[3]; AR-dependent luciferase transcription assay in CV-1 cells
  increase in potency for T877A mutant over WT: approximately 10 fold
[3]; CV1 transient transfection, MMTV-Luciferase reporter, read-out: IC50 T877A
  IC50: 0.81 µM
[3]; T877A AR, values given in μM, read-out: MMTV transcription assay in CV-1 cells T877A (IC50)
  IC50: 1.1 µM
[4]
  IC50: 18 µM
[5]
  inhibition of FKBP51 gene expression: approximately 50%
[6]; FKBP51 expression, T877A mutant receptor
  concentration at which maximal inhibition is obtained: 2 µM
[6]; LNCaP-XIP, 2 μM
  inhibition of FKBP51 gene expression: complete inhibition
[7]
  inhibition of AR/DNA binding: inhibitory activity
[8]
  rate of receptor proteolysis: does not influence the rate of receptor proteolysis
[9]
  AR RBA: 0.056%
[10]
  inhibition of the NTD/LBD interaction: inhibitory activity
